These results are taken from patent US20250127780A1, “IMIDAZO[4,5-B]PYRIDINE AND PYRAZOLO[1,5-A]PYRIMIDINE DERIVATIVES AS SIK MODULATORS FOR THE TREATMENT OF RHEUMATOID ARTHRITIS” (Hoffmann-La Roche Inc., priority 2022, published 2025).

Holding throughout (assay type): biochemical
One experiment deals with SIK2 (Homo sapiens (Human), UniProt Q9H0K1). The experiment can be described thus: Phosphorylation assay SIK2 (RapidFire mass spectrometry). To be noted: 0.5 nM SIK2, CHK-peptide, ATP, 30 min pre-incubation, 45 min incubation; read-out: SIK2 RF IC50. The procedure: (§1) In the presence of SIK2 (resp. SIK1 or SIK3) and ATP the CHK-peptide ([…] with C-terminal arginine amide modification) were phosphorylated at one of the four feasible serine's. Only one phosphorylation is observed under the assay conditions. 60 nl of each compound dilution series (12 point; dilution factor 3, generally 30 μM to 170 pM) in DMSO were transferred by acoustic dispensing to the assay plate and 30 minutes pre-incubated (ambient temperature) after the addition of 5 μl SIK1 (5 nM) resp. 5 μl SIK2 (0.5 nM) or 7 μl SIK3 (1.5 nM) in assay-buffer (12.5 mM HEPES (pH 7.0), 10 mM magnesium acetate, 0.005% BSA). 10 μM CHK-peptide solution and 5 μl of 100 μM ATP for SIK1 & SIK2 resp. 3 μl for SIK3 in assay-buffer were added and incubated ambient for 45 minutes. 40 μl of 0.125% formic acid in water were added to quench the reaction. RapidFire (RF) Mass Spectrometry was utilized for data generation as described below. The multiple charged species (3-5 charges) for the phosphorylated and non-phosphorylated form measured by MRM (Multiple Reaction Monitoring; API5000 or 6500+) or EIC (Extracted Ion Current; QToF) were summed up and the ratio calculated (sum phosphorylated species/sum all species) for data evaluation. Normalization was performed by Genedata software based on the non-inhibition control DMSO and the commercially available SIK inhibitor @1 μM YKL-05-099 (CAS number 1936529-65-5). The results of the assay are expressed in half-maximal inhibitory concentrations (IC50s) and are summarized below in Table 1.
SIK2, sequence (Q9H0K1 whole entry): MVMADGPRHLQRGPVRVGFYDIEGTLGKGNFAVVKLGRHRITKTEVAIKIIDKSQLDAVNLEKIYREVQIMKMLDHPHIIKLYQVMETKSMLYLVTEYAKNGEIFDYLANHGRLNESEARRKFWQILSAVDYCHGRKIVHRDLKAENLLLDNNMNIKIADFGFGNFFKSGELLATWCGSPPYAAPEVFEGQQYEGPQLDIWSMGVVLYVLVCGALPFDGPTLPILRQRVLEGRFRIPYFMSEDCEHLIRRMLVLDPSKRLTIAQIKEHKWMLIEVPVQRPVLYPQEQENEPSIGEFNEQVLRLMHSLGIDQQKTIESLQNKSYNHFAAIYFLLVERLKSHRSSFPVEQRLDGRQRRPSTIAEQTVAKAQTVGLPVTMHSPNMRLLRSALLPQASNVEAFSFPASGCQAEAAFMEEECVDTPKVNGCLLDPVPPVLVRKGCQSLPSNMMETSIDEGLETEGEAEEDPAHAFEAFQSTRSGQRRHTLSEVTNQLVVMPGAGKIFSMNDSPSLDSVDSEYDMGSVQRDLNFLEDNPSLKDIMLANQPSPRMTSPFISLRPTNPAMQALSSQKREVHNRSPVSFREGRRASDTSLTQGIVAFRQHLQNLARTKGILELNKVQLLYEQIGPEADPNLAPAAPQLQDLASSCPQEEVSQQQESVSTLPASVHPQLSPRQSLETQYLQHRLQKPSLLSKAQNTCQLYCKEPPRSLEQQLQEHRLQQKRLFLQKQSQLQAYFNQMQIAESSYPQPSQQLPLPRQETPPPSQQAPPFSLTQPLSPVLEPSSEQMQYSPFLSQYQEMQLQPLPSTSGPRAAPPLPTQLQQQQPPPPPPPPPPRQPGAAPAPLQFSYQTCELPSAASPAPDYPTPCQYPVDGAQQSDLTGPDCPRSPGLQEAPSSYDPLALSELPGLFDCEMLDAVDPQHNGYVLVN
(§2) Samples were aspirated by vacuum for max. 600 ms and loaded to C4-cartridge (Agilent; #G9203A) for 3000 ms@1.5 ml/min with 0.1% formic acid in water. Afterwards samples were transferred to the API5000 (API6500+) or QToF mass spectrometer for 4000 ms@1.25 ml/min with 90% acetonitrile; 10% water; 0.007% TFA; 0.093 formic acid. The cartridge was reconditioned for additional 500 ms with 0.1% formic acid in water.
(§3) All MS analyses using the following MS-setup in MRM mode: Electrospray positive; Ion Spray Voltage: 4000V; Temperature: 550° C.; Collision Gas: 5; Curtain Gas: 15; Gas 1: 40; Gas 2: 42; EP: 10. DP=declustering potential; CE=collision energy; CXP=cell exit potential.
(§4) All MS analyses using the following MS-setup in Mode MS: Dual AJS Electrospray positive; VCap: 3000V; Drying & Sheath gas: 340° C.@81/min; Nebulizer: 60 psig; Nozzle Voltage: 2000V; Fragmentor: 130V; Skimmer: 35V; Oct1 RF Vpp: 700V; Ref masses on@5spectra/s

The target of another experiment is SIK3 (Homo sapiens (Human), UniProt Q9Y2K2). The experiment can be described thus: Phosphorylation assay SIK3 (RapidFire mass spectrometry). To be noted: 1.5 nM SIK3, CHK-peptide, ATP, 30 min pre-incubation, 45 min incubation; read-out: SIK3 RF IC50. The procedure: as §1, §2, §3, §4
SIK3, sequence (Q9Y2K2 whole entry): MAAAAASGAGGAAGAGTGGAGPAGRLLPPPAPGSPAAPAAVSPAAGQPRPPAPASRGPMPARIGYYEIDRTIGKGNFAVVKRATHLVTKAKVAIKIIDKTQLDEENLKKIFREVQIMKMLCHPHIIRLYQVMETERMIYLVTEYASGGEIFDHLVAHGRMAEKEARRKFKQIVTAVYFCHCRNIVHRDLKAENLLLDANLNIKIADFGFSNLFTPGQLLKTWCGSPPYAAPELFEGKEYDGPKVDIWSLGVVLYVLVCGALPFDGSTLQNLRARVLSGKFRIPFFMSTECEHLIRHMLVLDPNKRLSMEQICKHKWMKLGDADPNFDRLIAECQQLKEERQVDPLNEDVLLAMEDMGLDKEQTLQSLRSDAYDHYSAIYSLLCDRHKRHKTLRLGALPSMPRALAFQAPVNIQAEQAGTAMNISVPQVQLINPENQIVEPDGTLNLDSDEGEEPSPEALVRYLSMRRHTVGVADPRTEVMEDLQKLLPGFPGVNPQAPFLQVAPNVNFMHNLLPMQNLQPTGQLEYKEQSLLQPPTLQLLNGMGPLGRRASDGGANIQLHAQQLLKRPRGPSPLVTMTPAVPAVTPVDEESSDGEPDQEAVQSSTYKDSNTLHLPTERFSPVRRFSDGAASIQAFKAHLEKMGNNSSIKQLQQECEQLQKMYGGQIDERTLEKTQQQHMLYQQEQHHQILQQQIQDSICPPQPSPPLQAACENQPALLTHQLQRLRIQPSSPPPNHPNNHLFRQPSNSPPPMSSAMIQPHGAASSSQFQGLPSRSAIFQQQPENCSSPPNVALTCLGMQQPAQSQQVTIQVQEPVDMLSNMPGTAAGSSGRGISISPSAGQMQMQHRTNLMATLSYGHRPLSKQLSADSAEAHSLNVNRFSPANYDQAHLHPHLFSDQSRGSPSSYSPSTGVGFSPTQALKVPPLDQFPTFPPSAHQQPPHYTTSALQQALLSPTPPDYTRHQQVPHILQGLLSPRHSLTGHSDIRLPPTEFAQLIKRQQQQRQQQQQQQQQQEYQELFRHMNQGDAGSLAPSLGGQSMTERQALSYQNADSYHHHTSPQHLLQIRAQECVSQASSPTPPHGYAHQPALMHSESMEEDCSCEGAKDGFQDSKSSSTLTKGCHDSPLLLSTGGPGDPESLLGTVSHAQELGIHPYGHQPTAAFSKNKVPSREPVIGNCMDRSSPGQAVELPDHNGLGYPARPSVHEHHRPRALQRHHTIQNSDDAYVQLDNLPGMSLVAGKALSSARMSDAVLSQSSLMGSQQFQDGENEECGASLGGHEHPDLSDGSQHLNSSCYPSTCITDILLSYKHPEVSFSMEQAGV
In the next experiment the target is SIK1 (Homo sapiens (Human), UniProt P57059). The experiment can be described thus: Phosphorylation assay SIK1 (RapidFire mass spectrometry). As to conditions: 5 nM SIK1, CHK-peptide, ATP, 30 min pre-incubation, 45 min incubation; read-out: SIK1 RF IC50. On the procedure: as §1, §2, §3, §4
SIK1, sequence (P57059 whole entry): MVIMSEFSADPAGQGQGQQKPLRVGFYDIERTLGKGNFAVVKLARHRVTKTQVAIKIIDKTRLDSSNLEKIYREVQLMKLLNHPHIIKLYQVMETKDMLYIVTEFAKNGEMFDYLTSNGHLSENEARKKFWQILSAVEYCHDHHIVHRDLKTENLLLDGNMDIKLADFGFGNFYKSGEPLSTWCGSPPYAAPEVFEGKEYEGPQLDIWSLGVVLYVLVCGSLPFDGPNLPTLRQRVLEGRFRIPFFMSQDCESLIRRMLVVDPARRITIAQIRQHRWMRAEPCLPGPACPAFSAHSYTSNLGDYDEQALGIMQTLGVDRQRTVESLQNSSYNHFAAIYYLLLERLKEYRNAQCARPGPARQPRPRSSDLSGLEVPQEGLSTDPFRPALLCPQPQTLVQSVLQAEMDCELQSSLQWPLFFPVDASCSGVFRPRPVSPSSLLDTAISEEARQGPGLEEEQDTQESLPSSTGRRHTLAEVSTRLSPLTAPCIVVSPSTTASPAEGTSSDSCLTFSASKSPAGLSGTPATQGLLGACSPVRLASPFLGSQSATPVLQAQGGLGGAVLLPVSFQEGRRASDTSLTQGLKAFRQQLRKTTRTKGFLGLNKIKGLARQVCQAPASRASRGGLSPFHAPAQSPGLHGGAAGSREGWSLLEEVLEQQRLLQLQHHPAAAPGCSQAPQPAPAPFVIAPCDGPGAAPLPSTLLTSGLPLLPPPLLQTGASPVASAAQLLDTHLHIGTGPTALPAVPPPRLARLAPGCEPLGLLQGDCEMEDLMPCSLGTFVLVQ

Where only a bound is given, the exact number is not on record here.

What is called IC50 is the point on the concentration scale where inhibition reaches its midpoint. On to `Cc1ccc(Nc2cnc3c(c2)ncn3-c2ccc(C(C)O)c(-n3nc(C#N)cc3C)c2)nn1` (stereo not drawn) [Example 1, 1-[2-(1-Hydroxyethyl)-5-[6-[(6-methylpyridazin-3-yl)amino]imidazo[4,5-b]pyridin-3-yl]phenyl]-5-methyl-pyrazole-3-carbonitrile], for which the values for the IC50 at SIK2, at SIK3 and on SIK1 were 16 nM, 2 nM and 2800 nM, respectively.
For `Cc1ccc(Nc2cnc3c(-c4ccc(C(C)O)c(-n5nc(C#N)cc5C)c4)cnn3c2)nn1` (stereo not drawn) [Example 2, 1-[2-(1-Hydroxyethyl)-5-[6-[(6-methylpyridazin-3-yl)amino]pyrazolo[1,5-a]pyrimidin-3-yl]phenyl]-5-methyl-pyrazole-3-carbonitrile], in that order: 1 nM, 0.3 nM and 616 nM.
For `Cc1cc(C(F)F)nn1-c1cc(-n2cnc3cc(Nc4cccnn4)cnc32)ccc1C(C)O` (stereo not drawn) [Example 3, 1-[2-[3-(Difluoromethyl)-5-methyl-pyrazol-1-yl]-4-[6-(pyridazin-3-ylamino)imidazo[4,5-b]pyridin-3-yl]phenyl]ethanol], in that order: 207 nM, 27 nM and 16600 nM.
Turning to `COc1nc2c(cc1Nc1nnc(C)cc1C(=O)N(C)C)ncn2-c1ccc(C#N)c(-n2nc(OC(F)F)cc2C)c1` [Example 4, 3-[[3-[4-cyano-3-[3-(difluoromethoxy)-5-methyl-pyrazol-1-yl]phenyl]-5-methoxy-imidazo[4,5-b]pyridin-6-yl]amino]-N,N,6-trimethyl-pyridazine-4-carboxamide], the half-maximal inhibitory concentration (IC50) amounted to 7 nM at SIK2, 207 nM on SIK3 and 18600 nM on SIK1.
For `Cc1ccc(Oc2cnc3c(-c4ccc(C(C)O)c(-n5nc(C#N)cc5C)c4)cnn3c2)nn1` (stereo not drawn) [Example 5, 1-[2-(1-Hydroxyethyl)-5-[6-(6-methylpyridazin-3-yl)oxypyrazolo[1,5-a]pyrimidin-3-yl]phenyl]-5-methylpyrazole-3-carbonitrile], in that order: 106 nM, 12 nM and 14600 nM.
Taken in the same sequence, the figures for `Cc1cc(C(=O)N(C)C)c(Nc2cnc3c(c2)ncn3-c2ccc(C#N)c(-n3nc(OC(F)F)cc3C)c2)nn1` [Example 6, 3-[[3-[4-Cyano-3-[3-(difluoromethoxy)-5-methyl-pyrazol-1-yl]phenyl]imidazo[4,5-b]pyridin-6-yl]amino]-N,N,6-trimethyl-pyridazine-4-carboxamide] were 152 nM, 366 nM and ≥ 30000 nM.
For `Cc1ccc(Nc2cnc3c(c2)ncn3-c2cc(F)c(C(C)O)c(-n3nc(C#N)cc3C)c2)nn1` (stereo not drawn) [Example 7, 1-[3-Fluoro-2-(1-hydroxyethyl)-5-[6-[(6-methylpyridazin-3-yl)amino]imidazo[4,5-b]pyridin-3-yl]phenyl]-5-methyl-pyrazole-3-carbonitrile], in that order: 21 nM, 6 nM and 6010 nM.
Turning to `Cc1ccc(Nc2cnc3c(-c4ccc(C(C)O)c(-n5nc(C(F)F)cc5C)c4)cnn3c2)nn1` (stereo not drawn) [Example 8, 1-[2-[3-(Difluoromethyl)-5-methyl-pyrazol-1-yl]-4-[6-[(6-methylpyridazin-3-yl)amino]pyrazolo[1,5-a]pyrimidin-3-yl]phenyl]ethanol], the half-maximal inhibitory concentration (IC50) at SIK2 was 52 nM; at SIK3, 4 nM; at SIK1, ≥ 30000 nM.
